Source: patent US20230097658A1, “TUNABLE EXTENDED RELEASE HYDROGELS” (FRED HUTCHINSON CANCER RESEARCH CENTER, priority 2020, published 2023)
“Also recorded” adds a separate entry of the source.

Tests used:
[1] = molecular target: CD47 on PBT-05 patient-derived pediatric high grade glioma cells (human) (UniProt Q08722); test: cell-based or functional assay
PBT-05 cells [2] = test: In vitro chemotaxis assay (Incucyte transwell); assay type: cell-based, human; conditions: patient-derived pHGG line PBT-05
From the text: Locally delivered therapeutics in the brain may need to account for the tendency of remnant brain tumor cells to migrate away from the tumor margins—potentially out of reach locally delivered therapeutics. Here, artificial gradients of chemokines were used to lure tumor cells and phagocytic cells in the brain towards a static “trap” of macrophage-enhancing therapeutics to facilitate tumor cell elimination. Referring to FIGS. 4A-4D, to model this, a patient-derived, pediatric high grade glioma (pHGG) line, PBT-05, was used. […] In vitro chemotaxis assays were carried out with PBT-05 against a panel of classical chemokines cited in literature as potentially being potent against migratory brain tumor cells. […] Without wishing to be bound by theory, it is believed that PBT-05's attraction towards hCCL2 gradients may be mediated by another receptor promiscuous with this chemokine. While this receptor was not identified, mCCL2 may not bind to it or produce the same downstream signaling. However, its chemotactic sensitivity to human and murine CXCL12 may be mediated by the canonical pathway.
Chemokines were purchased from: Sigma-Aldrich (CCL2: SRP3109) and RnD Systems (CXCL12: 350-NS/CF). Cell migration assays were performed using the chemotaxis module on the Incucyte Zoom 2016 and S3 (Essen Bio). Specialized 96 well transwell plates and reservoir dishes were supplied by the manufacturer (cat no's 4582, 4600). H2B-GFP+ PBT05 lines cells were cultured in the Neuralcult media+supplement without EGF/FGF to reduce background mobility caused by these growth factors. The Incucyte software was tailored to identify GFP+ nuclei to count the number of tumor cells on top and bottom of the transwell membranes.

human GB line = conditions: CXCR4 blocked; cited from earlier work
PBT-05 cells [3] = test: In vitro phagocytosis assay, PBT-05 co-culture with murine bone marrow derived macrophages (BMDM); assay type: cell-based, human; conditions: for contribution to tumor cell cytotoxicity when added to CD47 blockade: murine macrophage co-cultures, compared with CD47 blockade alone; for effect on viability of tumor cells in co-culture: polarizing agent without CD47mAb
From the text: These cultures were challenged with combinations of macrophage checkpoint inhibitors (MCIs) and immune cell polarizing factors described by literature as capable of promoting an immune response against tumor cells. […] Compared to a media control, no combination of MCIs and polarizing factors caused significant cytotoxicity of PBT-05 cells cultured alone, confirming the observed cytotoxic effect is mediated by the macrophages, not the drugs themselves.
Murine monocytes were harvested and cultured from femurs of C57BL/6 mice using RPMI (Thermofisher, 11875093) containing 10% heat deactivated FBS and 100 ng/mL mCSF1 for 7 days. Mature macrophages from these cultures were later harvested for experiments. Human monocytes were isolated from human PBMCs (Bloodworks) and purified by EasySep monocyte depletion kit (StemCell, 19355). Monocytes were cultured in RPMI containing 10% heat deactivated FBS and 25 ng/mL human CSF1 for 10 days. 50 ng/mL IL-10 was added to the cultures at day 5 to induce M2 phenotypes. Mature macrophages were later harvested for use in experiments.
Monoclonal antibodies were purchased from Bioxcell (LEAF hCD47, BE0019) and Biolegend (LEAF hCD24mAb: 101810, MsIgG1: 400153). Phagocytosis assays were performed using the Basic Analyzer software on Essen Bio's Incucyte Zoom and Incucyte S3. 12 or 24 well plates were seeded 1:1 with GFP+ tumor lines and macrophages (murine/human) in fully supplemented Neuralcult plus various MCIs and immunomodulators described previously. Using the aforementioned definitions, the Incucyte calculated tumor cell counts based on the number of GFP+ nuclei in the wells over time.

UniProt Q08722, sequence (Q08722 19-323): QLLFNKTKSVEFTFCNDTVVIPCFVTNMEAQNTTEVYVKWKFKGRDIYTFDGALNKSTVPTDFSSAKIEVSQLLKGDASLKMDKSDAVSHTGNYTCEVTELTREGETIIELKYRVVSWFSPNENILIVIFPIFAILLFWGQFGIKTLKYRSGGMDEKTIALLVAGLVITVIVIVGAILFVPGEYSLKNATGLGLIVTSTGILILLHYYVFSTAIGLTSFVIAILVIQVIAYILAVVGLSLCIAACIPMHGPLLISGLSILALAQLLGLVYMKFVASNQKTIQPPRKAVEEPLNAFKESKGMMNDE

LEAF hCD47 monoclonal antibody (Bioxcell, BE0019)
phagocytosis of PBT-05 cells by murine and human macrophages in co-culture (tumor cell count); antibody concentration that was effective [1]: 1 µg/mL

CXCL12: classical chemokine, ligand of CXCR4, purchased from RnD Systems (350-NS/CF)
chemotaxis of PBT-05 cells (chemotactic potency) (PBT-05 cells [2]): effective at eliciting chemotaxis; also recorded: induced varying degrees of chemotaxis; also recorded: effective at eliciting migration; also recorded: effectively chemoattract; also recorded: varying sensitivity

c1cc(CN2CCCNCCNCCCNCC2)ccc1CN1CCCNCCNCCCNCC1 [AMD3100]
chemotaxis towards gradients of CXCL12 (human GB line): reduced chemotaxis

CCOCc1nc2c(N)nc3ccccc3c2n1CC(C)(C)O [R848, reference compound]
contribution to tumor cell cytotoxicity when added to CD47 blockade (PBT-05 cells [3]): did not significantly contribute to tumor cell cytotoxicity; also recorded: did not significantly increase cytotoxicity
effect on viability of tumor cells in co-culture (PBT-05 cells [3]): mild effects

hCCL2: human CCL2 chemokine
chemotaxis of PBT-05 cells (chemotactic potency) (PBT-05 cells [2]): greatest potency of the chemokines tested

mCXCL12: murine CXCL12 chemokine
chemotaxis of PBT-05 cells (chemotactic potency) (PBT-05 cells [2]): lost some potency

mCCL2: murine version of the chemokine CCL2
chemotaxis of PBT-05 cells (chemotactic potency) (PBT-05 cells [2]): unresponsive

CCL2: classical chemokine, purchased from Sigma-Aldrich (SRP3109)
chemotaxis of PBT-05 cells (chemotactic potency) (PBT-05 cells [2]): induced varying degrees of chemotaxis; also recorded: varying sensitivity

B1: IFNg: polarizing agent (cytokine) that induces activated phenotypes in macrophages (protein, UniProt P01579 24-161, looked up)
Interferon gamma: QDPYVKEAENLKKYFNAGHSDVADNGTLFLGILKNWKEESDRKIMQSQIVSFYFKLFKNFKDDQSIQKSVETIKEDMNVKFFNSNKKKRDDFEKLTNYSVTDLNVQRKAIHELIQVMAELSPAAKTGKRKRSQMLFRG
contribution to tumor cell cytotoxicity when added to CD47 blockade (PBT-05 cells [3]): did not significantly contribute to tumor cell cytotoxicity; also recorded: did not significantly increase cytotoxicity
effect on viability of tumor cells in co-culture (PBT-05 cells [3]): mild effects
